This note sets out measurements from ChEMBL document CHEMBL5260828, “Amphiphilic glycoconjugates as potential anti-cancer chemotherapeutics” (Eur J Med Chem, 2018).

By inhibition is commonly meant the percentage by which the read-out fell short of the control. Read a low inhibition as a response near the control. What is called IC50 is the midpoint of a concentration-inhibition curve.

Data set [1] has as its system Jurkat. Briefly: Inhibition of cell growth in human Jurkat cells at 25 ug/ml. The data set is classed as functional.
In the next data set the test system is HEp-2. Briefly: Cytotoxicity against human HEp-2 cells assessed as cell growth inhibition by measuring effective dose. Type of data set: functional. To be noted: read-out: ED50 (the source's name).
The test system of the next data set is MCF-10A. Briefly: Cytotoxicity against human MCF-10A cells assessed as cell growth inhibition by alamar blue assay. Type of data set: functional, cell-based. A general note: Resazurin is reduced to fluorescent resorufin, in cell work by metabolically active cells.
Another data set concerns U-937. Briefly: Cytotoxicity against human U-937 cells assessed as cell growth inhibition by alamar blue assay. Type of data set: functional, cell-based.
For data set [2], the system named is MDA-MB-231. Briefly: Cytotoxicity against human MDA-MB-231 cells assessed as cell growth inhibition by alamar blue assay. Type of data set: functional, cell-based.
Data set [3] concerns Jurkat. Briefly: Cytotoxicity against human Jurkat cells assessed as cell growth inhibition by alamar blue assay. Type of data set: functional, cell-based.
Another data set deals with MCF7. Briefly: Cytotoxicity against human MCF7 cells assessed as cell growth inhibition by MTT assay. The data set is classed as functional, cell-based. (Tetrazolium dyes change colour on reduction, which living cells bring about.)
For another data set, the system named is HeLa. Briefly: Cytotoxicity against human HeLa cells assessed as cell growth inhibition by alamar blue assay. The data set is classed as functional, cell-based.
The subject of data set [4] is ACHN. Briefly: Cytotoxicity against human ACHN cells. Type of data set: functional, cell-based.
Another data set relates to MKN-45. Briefly: Cytotoxicity against human MKN-45 cells. The data set is classed as functional, cell-based.
The nature of data set [5]: Cytotoxicity against human HEK293F cells. The data set is classed as toxicity, cell-based.
Data set [6] relates to A549. Briefly: Cytotoxicity against human A549 cells assessed as inhibition of cell growth by measuring its effective dose. Type of data set: functional. To be noted: read-out: ED50 (the source's name).
For the next data set, the system named is SK-MEL-2. Briefly: Cytotoxicity against human SK-MEL-2 cells assessed as inhibition of cell growth by measuring its effective dose. Type of data set: functional. To be noted: read-out: ED50 (the source's name).
Another data set concerns XF498. Briefly: Cytotoxicity against human XF498 cells assessed as inhibition of cell growth by measuring its effective dose. The data set is classed as functional. To be noted: read-out: ED50 (the source's name).
The test system of the next data set is SK-OV-3. Briefly: Cytotoxicity against human SK-OV-3 cells assessed as inhibition of cell growth by measuring its effective dose. The data set is classed as functional. To be noted: read-out: ED50 (the source's name).
Another data set has as its system HCT-15. Briefly: Cytotoxicity against human HCT-15 cells assessed as inhibition of cell growth by measuring its effective dose. To be noted: read-out: ED50 (the source's name). Type of data set: functional.
For data set [7], the system named is KB. Briefly: Cytotoxicity against human KB cells by MTT assay. Type of data set: functional, cell-based.
For data set [8], the system named is K562. Briefly: Cytotoxicity against human K562 cells by MTT assay. The data set is classed as functional, cell-based.
Data set [9] deals with A549. Briefly: Cytotoxicity against human A549 cells assessed as cell growth inhibition incubated for 24 hrs by MTT assay. The data set is classed as functional, cell-based. To be noted: A549, 24 h.
Data set [10] relates to KB. Briefly: Cytotoxicity against human KB cells assessed as cell growth inhibition incubated for 24 hrs by MTT assay. Type of data set: functional, cell-based.
The test system of data set [11] is MDA-MB-231. Briefly: Cytotoxicity against human MDA-MB-231 cells assessed as cell growth inhibition incubated for 24 hrs by MTT assay. Type of data set: functional, cell-based. To be noted: MDA-MB-231, 24 h.
For another data set, the system named is Col2. Briefly: Cytotoxicity against human Col2 cells assessed as cell growth inhibition incubated for 24 hrs by MTT assay. Type of data set: functional, cell-based. To be noted: Col2, 24 h.
The subject of data set [12] is K562. Briefly: Cytotoxicity against human K562 cells assessed as cell growth inhibition incubated for 24 hrs by MTT assay. The data set is classed as functional, cell-based. To be noted: K562, 24 h.
Data set [13] deals with K562. Briefly: Antiproliferative activity against human K562 cells assessed as reduction in cell viability incubated for 48 hrs by CCK-8 assay. To be noted: K562, 48 h. Type of data set: functional, cell-based.
The test system of a further data set is L1210. Briefly: Cytotoxicity against mouse L1210 cells. The data set is classed as functional, cell-based.
The next data set relates to P388. Briefly: Cytotoxicity against mouse P388 cells. The data set is classed as functional, cell-based. To be noted: Mus musculus, P388; read-out: IC50.
The next data set relates to T-24. Briefly: Cytotoxicity against human T24 cells assessed as cell viability. The data set is classed as functional.
Data set [14] concerns ACHN. Briefly: Cytotoxicity against human ACHN cells assessed as cell viability. The data set is classed as functional.

In brackets after ≈: the same amount, converted by molar mass.

In the case of `CCOC(=O)CCCCCCC/C=C/CCCCCC[C@H](C)O[C@@H]1O[C@H](COC(C)=O)[C@@H](O)[C@H](O)[C@H]1O[C@@H]1O[C@H](COC(C)=O)[C@@H](O)[C@H](O)[C@H]1O`, the inhibition at 25 µg/mL with Jurkat [1] is 90%.
Regarding `CCCCCCCCCCCC(=O)O[C@@H]1[C@@H](O)[C@@H](OC(=O)/C=C/c2ccccc2)[C@H](O[C@@H]2[C@@H](O[C@@H]3O[C@@H](C)[C@H](O)[C@@H](O)[C@H]3O)[C@@H](OC(=O)C(C)C)[C@H](O[C@@H]3[C@@H](O)[C@H]4OC(=O)CCCCCCCCC[C@@H](CCCCC)O[C@@H]5O[C@H](C)[C@@H](O)[C@H](O)[C@H]5O[C@@H]4O[C@H]3C)O[C@H]2C)O[C@H]1C`, the EC50 in the data set on HEp-2 turned out to be 2 mg/L (≈ 1.46 µM).
Consider `C/C=C(\C)C(=O)O[C@@H]1[C@@H](O)[C@@H]2O[C@H]3[C@H](O[C@@H](CCCCC)CCCCCCCCCC(=O)OC[C@@H](O2)[C@H]1OC(=O)/C=C/c1ccccc1)O[C@H](C)[C@H](OC(C)=O)[C@@H]3O`, for which the IC50 in the data set on MCF-10A turned out to be 0.0307 µM; with U-937 it was 0.0111 µM; in the data set on MDA-MB-231 [2], 0.0161 µM; with Jurkat [3], 0.0097 µM; in the data set with MCF7, 0.033 µM; in the data set with HeLa, 0.0149 µM.
For the compound `CCCCCCCC(=O)O[C@H]1[C@H](OC[C@@H](O)[C@@H](O)[C@H](O)CO)O[C@H](COC(=O)CCCCC)[C@@H](OC(=O)CCCCC)[C@@H]1OC(=O)CCCCC`, the 50% inhibitory concentration (IC50) in the data set on ACHN [4] stood at 6.8 µM; in the data set on MKN-45 it was 7.5 µM; in [5] it was 8.9 µM.
Regarding `CCCCCCCCCCCCCCCCOC[C@H](O)COC1[C@@H](O)[C@H](O)[C@@H](O)[C@@H]1O`, the EC50 in the data set on A549 [6], with SK-MEL-2, with XF498, in the data set on SK-OV-3 and in the data set on HCT-15 was 4.3 mg/L (≈ 9.58 µM) in each case.
`C/C=C(\C)[C@H](O)[C@H](C)/C=C/C=C/C/C(C)=C/Cc1nc(OC)c(OC)c(OC2O[C@@H](C)[C@H](O)[C@@H](O)[C@H]2O)c1C` (stereo not given in full): the half-maximal inhibitory concentration (IC50) with KB [7] was found to be 4.5 mg/L (≈ 8.22 µM); with K562 [8] it was 2.9 mg/L (≈ 5.29 µM).
For the compound `CCCCCCCCO[C@@H]1O[C@@H](C)[C@H](OC(=O)CCCCC)[C@@H](O[C@@H]2O[C@@H](C)[C@H](OC(C)=O)[C@@H](O[C@@H]3O[C@@H](C)[C@H](OC(C)=O)[C@@H](O[C@@H]4O[C@@H](C)[C@H](O)[C@@H](O)[C@H]4OC(C)=O)[C@H]3OC(C)=O)[C@H]2OC(C)=O)[C@H]1O`, the concentration for half-maximal inhibition (IC50) with A549 [9], in the data set with KB [10], in the data set with MDA-MB-231 [11], in the data set with Col2 and with K562 [12] was 0.7 µM each time.
Regarding `CCCCCCCCCCN1C[C@H](NC(C)=O)[C@@H](O)[C@H](O)C1=O`, the IC50 in the data set on K562 [13] was 19.8 µM.
For `CO[C@@H]1[C@H](O[C@@H]2CO[C@@H](O[C@@H]3[C@@H](O)[C@H](O)CO[C@H]3N3C(=O)/C(=C(O)/C=C/C=C/C=C/C=C/C=C(Cl)/C=C(\C)Cl)C(=O)[C@@H]3CC(N)=O)[C@@H](O)[C@@H]2O)O[C@H](C)[C@H]1O` [AURANTOSIDE A], the half-maximal inhibitory concentration (IC50) in the data set on L1210 worked out at 3.4 mg/L (≈ 4.16 µM); in the data set with P388, 1.8 mg/L (≈ 2.2 µM).
With `C\C(Cl)=C/C(Cl)=C/C=C/C=C/C=C/C=C/C(O)=C1\C(=O)[C@H](CC(N)=O)N([C@@H]2OC[C@@H](O)[C@H](O)[C@H]2O[C@@H]2OC[C@@H](O[C@@H]3O[C@H](C)[C@@H](O)[C@@H]3O)[C@@H](O)[C@@H]2O)C1=O` [AURANTOSIDE B], the IC50 in the data set with L1210 is 3.3 mg/L (≈ 4.11 µM); in the data set on P388 it was 3.2 mg/L (≈ 3.98 µM).
For the compound `COc1cccc2c1C(=O)c1c(O)c3c(c(O)c1C2=O)C[C@@](O)(C(=O)CO)C[C@@H]3O[C@H]1C[C@H](N)[C@H](O)[C@H](C)O1` [DOXORUBICIN], the Activity with T-24 worked out at 79%.
Consider `CC(=O)O[C@H]1C(=O)[C@@]2(C)[C@H]([C@H](OC(=O)c3ccccc3)[C@]3(O)C[C@H](OC(=O)[C@H](O)[C@@H](NC(=O)c4ccccc4)c4ccccc4)C(C)=C1C3(C)C)[C@]1(OC(C)=O)CO[C@@H]1C[C@@H]2O` [PACLITAXEL], for which the Activity with ACHN [14] was found to be 65.8%.
